From patent publication US20230035127A1, “CULTURE AND DIFFERENTIATION OF PLURIPOTENT STEM CELLS” (University of Maryland, College Park, priority 2021, published 2023)
“Also recorded” adds a separate entry of the source.

Tests used:
[1] = tested on: human eiPSCs; assay: Flow cytometry of protein markers in eiPSC spheroids and cardiac spheroids; type: cell-based
Procedure: For flow cytometry, the eiPSC spheroids were collected on day 0 and the cardiac spheroids were collected on days 1.5, 2.5, 12.5, 15. The spheroids were dissociated to single cells by 0.25% trypsin for 5 min at 37° C. and then fixed with 75% ethanol at 4° C. overnight. The cells were permeabilized with 0.05% Triton X-100 for 3 min and then rinsed with 1×PBS twice. The cell numbers were adjusted to 1×10^6 cells/tube in 700 μL of saline for each marker. These cells were incubated with primary antibodies including OCT-4 (1:500 dilution, Cell Signaling Technologies), NANOG (1:500 dilution, Cell Signaling Technologies), SSEA-4 (1:500 dilution, Cell Signaling Technologies), BRACHYURY (1:500; Santa Cruz Biotechnology), NKX2.5 (1:500; Santa Cruz Biotechnology), cTnT (1:500 dilution, Cell Signaling Technologies), cTnI (1:500 dilution, Cell Signaling Technologies), α-ACTININ (1:500 dilution; Santa Cruz Biotechnology), MUSASHI-1 (1:500; R&D Systems), and TUJ-1 (1:500; R&D Systems) at 4° C. overnight. Subsequently, the samples were rinsed with 1×PBS thrice before incubation with corresponding secondary antibodies: goat anti-mouse IgG FITC and goat anti-rabbit IgG PE, respectively (1:1000; Invitrogen) for 1 h at RT. The samples were then rinsed with 1×PBS thrice before flow cytometry. The negative controls were the cells incubated with respective primary antibodies as aforementioned (no incubation with a secondary antibody).

[2] = tested on: IMR90-1 human iPSCs; assay: Immunostaining of IMR90-1 cardiac spheroids; type: cell-based; settings: day 12.5
Procedure: The iPSC spheroids and the iPSC-derived Cardiac spheroids were fixed in 4% PFA in 1×PBS at 4° C. overnight. The fixed spheroids were incubated sequentially in 10% and 15% sucrose solutions in saline for 4 h, respectively. Afterward, the spheroids were put in a plastic box and embedded in OCT for cryosectioning. Slices of the spheroids of 10 μm thick were obtained by cutting the frozen sample on a Leica cryostat platform and then immediately attached onto the Leica Apex high adhesive glass slides.
For immunostaining, the slides were gently rinsed twice with 1×PBS to remove the OCT and then incubated with 0.1% Tween-20 and 5% normal goat serum in 1×PBS for 1 h at room temperature (RT) to block non-specific bindings. Later, the samples were incubated with primary antibodies at 4° C. overnight. The dilution and product information of the primary antibodies were as follows: OCT-4 (1:500 dilution, Cell Signaling Technologies), NANOG (1:500 dilution, Cell Signaling Technologies), SSEA-4 (1:500 dilution, Cell Signaling Technologies), cTnT (1:500 dilution, Cell Signaling Technologies), CONNEXIN-43 (CX-43, 1:400 dilution, Santa Cruz Biotechnology), DESMIN (1:500 dilution, Santa Cruz Biotechnology), α-ACTININ (1:500 dilution; Santa Cruz Biotechnology), BRACHYURY (1:500; Santa Cruz Biotechnology), NKX2.5 (1:500; Santa Cruz Biotechnology), NESTIN (1:500; R & D Systems), MUSASHI-1 (1:500; R & D Systems), and TUJ-1 (1:500; R & D Systems). Afterward, the samples were rinsed with 1×PBS thrice and then incubated with the associated secondary antibodies (goat anti-rabbit IgG FITC and goat-anti-mouse IgG PE, Invitrogen) in 1×PBS for 1.5 h at RT. Lastly, the samples were rinsed with 1 ml of 1×PBS for 3 min and the nuclei were stained with 1 μg/ml DAPI solution for 5 min at RT. The samples were imaged with the Zeiss LSM 710 microscope.

Q: For `C[C@@H](N)[C@H]1CC[C@H](C(=O)Nc2ccncc2)CC1.Cl.Cl` (relative stereo) [RI, (+)-(R)-trans-4-(1-aminoethyl)-N-(4-pyridyl) cyclo-hexanecarboxamide dihydrochloride], which “expression of pluripotency markers OCT-4, NANOG, SSEA-4” value ([1]; 1 μM RI group versus 10 μM RI group, day 0) is on record?
A: Its value is “significantly higher”.

Q: And the “expression of neural-specific protein markers MUSASHI-1 and TUJ-1” value ([1]; 1 μM RI, cardiac spheroids day 12.5, dihydrochloride)?
A: The value was “negligible; also recorded: negative”.

Q: And the BRACHYURY-positive cells ([1]; 1 μM RI, day 1.5, after CHIR99021 and BIO for 1 day)?
A: The BRACHYURY-positive cells was ~100%.

Q: What about the NKX2.5 expression ([1]; 1 μM RI, day 2.5, after XAV939 and KY02111) of the same compound?
A: The NKX2.5 expression was ~100%.

Q: And the cTnI-positive cells ([1]; 1 μM RI, day 12.5)?
A: Its cTnI-positive cells is 93.9%.

Q: What about the “cells positive for sarcomere-related proteins including α-ACTININ and cTnI” value ([1]; 1 μM RI, day 12.5) of the same compound?
A: The value was “more than 90%”.

Q: And the α-ACTININ-positive cells ([1]; 1 μM RI, day 12.5)?
A: The α-ACTININ-positive cells was 95%.

Q: What about the “expression of ectoderm marker NESTIN” value ([1]; 1 μM RI, eiPSC spheroids day 0) of the same compound?
A: The value was “negligible”.

Q: And the “expression of ectoderm marker NESTIN” value ([1]; 10 μM RI, eiPSC spheroids after four-day culture (day 0))?
A: The value was 73.1%.

Q: And the “percentage of cTnT-positive cells and mean intensity of cTnT fluorescence staining” value ([1]; RI from 1 to 5 to 10 μM, cardiac spheroids day 15, dihydrochloride)?
A: The value was “decreased with the increase of the RI concentration; also recorded: decreases as the RI treatment concentration increases”.

Q: And the “expression of cTnT and CX-43” value ([2]; 1 μM RI)?
A: The value was “high with an evident expression of the gap junction protein CX-43”.

Q: And the “immunostaining of neural markers MUSASHI and TUJ-1” value ([2]; 1 μM RI)?
A: The value was “negligible”.

Q: And the “expression of cTnT and CX-43” value ([2]; 10 μM RI)?
A: Its value is “low and negligible, respectively”.

Q: What about the “immunostaining of neural markers MUSASHI and TUJ-1” value ([2]; 10 μM RI) of the same compound?
A: The value was “existence of MUSASHI- and TUJ-1-positive cells”.
